One assay deals with Plutella xylostella. Briefly: Insecticidal test on Plutella xylostella (dip of Chinese cabbage seedlings with laid eggs). The class given is in vivo. Particulars: 144 h, seedlings with laid eggs dipped about 30 seconds, 25° C., 6 days after dip treatment, criteria of Test Example 2, read-out: insecticidal efficacy (corrected mortality rate, hatched larvae). An excerpt: Insecticidal Test on Plutella xylostella
Adults of Plutella xylostella were released onto Chinese cabbage seedlings and allowed to lay eggs thereon. At 2 days after the release of the adults, the Chinese cabbage seedlings with laid eggs were dipped for about 30 seconds in agrochemical dispersions diluted to 500 ppm, each of which contained a different condensed heterocyclic compound represented by the general formula (1) of the present invention as an active ingredient. After air-dried, the seedlings were kept in a thermostatic chamber at 25° C. At 6 days after the dip treatment, the number of hatched larvae per plot was counted, the mortality rate was calculated according to the formula shown below, and the insecticidal efficacy was evaluated according to the criteria of Test Example 2. This test was conducted in triplicate using 10 adults of Plutella xylostella per plot. Corrected mortality rate (%)=100×(Number of hatched larvae in a non-treatment plot−Number of hatched larvae in a treatment plot)/Number of hatched larvae in a non-treatment plot [Math. 3]

The subject of a further assay is Laodelphax striatellus. As to the kind of experiment: Insecticidal test on Laodelphax striatellus (rice seedling dip). The class given is in vivo. The following applies: 192 h, rice seedlings dipped 30 seconds, ten 3rd-instar larvae, 8 days after inoculation, read-out: insecticidal efficacy (corrected mortality rate). An excerpt:
Insecticidal Test on Laodelphax striatellus
The condensed heterocyclic compounds represented by the general formula (1) of the present invention or salts thereof were separately dispersed in water and diluted to 500 ppm. Rice plant seedlings (variety: Nihonbare) were dipped in the agrochemical dispersions for 30 seconds. After air-dried, each seedling was put into a separate glass test tube and inoculated with ten 3rd-instar larvae of Laodelphax striatellus, and then the glass test tubes were capped with cotton plugs. At 8 days after the inoculation, the numbers of surviving larvae and dead larvae were counted, the corrected mortality rate was calculated according to the formula shown below, and the insecticidal efficacy was evaluated according to the criteria shown below. Corrected mortality rate (%)=100×(Survival rate in a non-treatment plot−Survival rate in a treatment plot)/Survival rate in a non-treatment plot [Math. 2] Corrected Mortality Rate A: the corrected mortality rate is 100%. B: the corrected mortality rate is 90 to 99%. C: the corrected mortality rate is 80 to 89%. D: the corrected mortality rate is 50 to 79%.

As a reminder, the mortality is the share of the test organisms that died.

Turning to `CCS(=O)(=O)c1cc(C(F)(F)F)cnc1-c1[nH]c2cc(C(F)(F)F)cnc2c1F` [Compound 1-75, 2-(3-ethylsulfonyl-5-trifluoromethylpyridin-2-yl)-3-fluoro-6-trifluoromethyl-1H-pyrrolo[3,2-b]pyridine], the mortality at 500 ppm in the assay on Plutella xylostella and with Laodelphax striatellus was 100% in each case.
Turning to `CCS(=O)(=O)c1cc(C(F)(F)F)cnc1-c1[nH]c2cc(C(F)(F)F)cnc2c1Cl` [Compound 1-76, 2-(3-ethylsulfonyl-5-trifluoromethylpyridin-2-yl)-3-chloro-6-trifluoromethyl-1H-pyrrolo[3,2-b]pyridine], the mortality at 500 ppm in the assay with Plutella xylostella and with Laodelphax striatellus was 100% throughout.
For the molecule `CCS(=O)(=O)c1cc(C(F)(F)F)cnc1-c1[nH]c2cc(C(F)(F)F)cnc2c1Br` [Compound 1-77, 2-(3-ethylsulfonyl-5-trifluoromethylpyridin-2-yl)-3-bromo-6-trifluoromethyl-1H-pyrrolo[3,2-b]pyridine], the mortality at 500 ppm in the assay with Plutella xylostella and with Laodelphax striatellus was 100% each time.
`CCS(=O)(=O)c1cc(C(F)(F)F)cnc1-c1c(Cl)c2ncc(C(F)(F)F)cc2n1C(C)=O` [Compound 3-3, 1-acetyl-2-(3-ethylsulfonyl-5-trifluoromethylpyridin-2-yl)-3-chloro-6-trifluoromethyl-1H-pyrrolo[3,2-b]pyridine]: the mortality at 500 ppm in the assay with Plutella xylostella and in the assay with Laodelphax striatellus was 100% in each case.

The values are drawn from patent US10779537B2, “1H-pyrrolopyridine compound, N-oxide thereof or salt thereof, agricultural and horticultural insecticide comprising the compound, and method for using the insecticide” (Nihon Nohyaku Co., Ltd., priority 2016, dated 2020).
